Results as given in patent publication US20230242669A1, “ANTIBODY THAT BINDS ERBB-2 AND ERBB-3” (Merus N.V., priority 2014, published 2023).

Tests used:
BT-474 and SKBR-3 cells = assay: BT-474 and SKBR-3 growth in […] with HRG (morphology, PCA); type: cell-based, human
Experimental: The cells were tested at the company Ocello based in Leiden, the Netherlands that grows cells in three dimensional […]® and uses principle component analysis to distinguish non-treated cells from treated cells. 2000 SK-BR-3 or 2250 BT474 cells were seeded in 15µl […]® per well of a 384 well plate (Greiner 781091 ). […] In addition a dose-dependent titration of HRG was included as a positive control. Each dose was tested in quadruplicate. Cells were incubated for 7 days in a cell culture incubator at 37° C., 5% CO2. Next, the cells were fixed and actin cytoskeleton of the cells was stained with phalloidin and the nuclei are stained with Hoechst. Next, fluorescent images were taken at different levels through the gel (Z-stack) and the images were superimposed. A broad range of morphological features were measured (800 in total). Only features that differed between medium and HRG treatments were selected for analysis. […] Both multiparameter and single parameter analyses were made. For single parameter measurements, t-tests were performed to compare treatments (HRG or antibody) to medium. P-values for each point were determined. […]
The assay was performed in […]®, as described above, and morphological features were analyzed. […]

N87 cells = assay: HRG driven N87 proliferation assay; type: cell-based, human
Experimental: Upregulation of NRG1-β1 is a key resistance mechanism against HER2 targeted therapies (Wilson, 2012). […] N87 cells were cultured in RPMI 1640 supplemented with 10% heat inactivated FBS. For the proliferation assay subconfluent cell cultures of N87 cells were washed with PBS trypsinized and trypsin was inactivated by adding culture medium. Cells were washed twice in large volumes of assay medium (RPMI 1640 medium containing 0.05% BSA and 10 µg/ml Holo Transferrin). Antibodies were diluted in a semi-log titration that varied from 1-0.0001 µg/ml. Cells were added at a density of 10000 cells/well in the presence of 100 ng/ml final concentration of HRG. The cells were cultivated for 3 days at 37° C., 5% CO2, in 95% relative humidity. ALAMAR BLUE™ (INVITROGEN®) was added according to the manufacturer’s instructions and incubated for 6 hours at 37° C., 5% CO2, in 95% relative humidity in the dark. Fluorescence was measured at 550 nm excitation with 590 nm emission wavelength.
Upregulation of NRG 1-β1 is a key resistance mechanism against HER2 targeted therapies (Wilson, 2012). […] To this aim N87 cells were cultured in RPMI 1640 supplemented with 10% heat inactivated FBS. […] Fluorescence was measured at 550 nm excitation with 590 nm emission wavelength.

[1] = tested on: human stem cell derived cardiomyocytes; assay: Cardiomyocyte viability under doxorubicin stress; type: cell-based; settings: 3 µM doxorubicin, 10 ng/ml HRG; monospecific antibodies 68 nM
Experimental: Human stem cell derived cardiomyocytes (Pluriomics BV) were seeded at a concentration of 20.000 well in white flat-bottom assay plates (corning 655098). On day 5 of culture the medium was replaced for glucose and galactose free culture medium supplemented with 10 ng/ml HRG. On day 7 test antibodies were added in combination with doxorubicin (3 µM). Cell viability was assayed on day 9 using the Promega Cell titer Glo assay.

[2] = tested on: HRG mediated phosphorylation in N87 and SKBR-3 cells; assay: PathScan RTK / intracellular signaling antibody arrays; type: cell-based, human; settings: 5 nM antibody, 100 ng/ml HRG
Experimental: Cells of an exponentially grown culture were harvested and seeded in 6 well plates (3.75 ×10^6 cells for N87 and 1.5×10^6 cells for SKBR-3) in starvation medium (N87 cells: RPMI-1640, 0.05% BSA, 10 µg/ml Holo-transferrin; SKBR-3 cells: DMEM/F-12, 2 mM L-glutamine, 0.05% BSA, 10 µg/ml Holo-transferrin) and incubated incubated overnight at 37° C., 5% CO2, in 95% relative humidity. The next day, antibodies were added to a final concentration of 5 nM and cells were incubated for one hour at 37° C., 5% CO2, in 95% relative humidity. HRG was then added to a final concentration of 100 ng/ml. After 1, 3, 6 or 24 hours at 37° C., 5% CO2, in 95% relative humidity, plates were placed on ice, cells were washed twice with cold PBS. Subsequently 0.3 ml ice-cold lysis buffer was added (Cell signaling RTK # 9803 or IC # 7018) and cells were lysed for a minimum of 30 minutes on ice. Next, protein concentrations were measured using BCA (Pierce #23235). Protein concentrations were adjusted to 2 mg/ml with lysis buffer. Next, lysates were applied to PathScan RTK Signaling Antibody Arrays (Cell signaling #7949) or PathScan Intracellular Signaling Antibody Arrays. All incubations were performed with sealed wells on an orbital shaker at room temperature. Lysates (75 µl) were diluted 2 times to […] concentration with 75 µl Array Diluent Buffer supplemented with protease inhibitor cocktail and kept on ice. Array wells were blocked with 100 µl Array block buffer for 15 minutes. Block buffer was removed and Lysates were applied to the wells and allowed to incubate for 2 hours. Lysate was aspirated and wells were washed 4 times with 100 µl Wash buffer. Next, 100 µl detection antibody cocktail was added per well and incubated for 1 hour. Antibody cocktail was aspirated and wells were washed 4 times with 100 µl Wash buffer. 75 µl DYLIGHT80™ Streptavidin was added to each well. DYLIGHT80™ Streptavidin was aspirated and wells were washed 4 times with 100 µl Wash buffer. […] Spot fluorescence intensity was calculated using Image Studio software.

PB4188: bispecific HER2xHER3 IgG: HER2 arm MF3958, HER3 arm MF3178
Activity compared to pertuzumab + trastuzumab, PB3448 and MEHD7945A (BT-474 and SKBR-3 cells; BT-474 and SKBR-3, in the presence of HRG): superior activity
Effect on HRG induced proliferation and branching/invasion phenotype (BT-474 and SKBR-3 cells; SKBR-3, 10 ng/ml HRG): completely revert the HRG induced phenotype
Anti-proliferative activity on N87 (N87 cells; 100 ng/ml HRG): superior activity over anti-HER2 or anti-HER3 monoclonal antibodies
Anti-proliferative activity on N87 versus PG3178 (N87 cells; increasing HRG 0.04-39.5 nM): superior activity compared to the parental anti-HER3 monoclonal antibody
Cardiomyocyte viability (ATP) [1]: unaffected
ERK and S6 phosphorylation [2]: strong inhibition
HER2 phosphorylation [2]: does not inhibit phosphorylation of HER2
AKT phosphorylation ([2]; first 6H): completely blocks AKT phosphorylation
